# Results: PMC7560342, “In Vitro and In Vivo Evaluation of the Toxic Effects of Dodecylguanidine Hydrochloride” (Toxics, 2020)
# What was measured:
# A549 cells = assay: cells; assay type: cell-based, Human; details: 24 h exposure, WST assay; for IC50: Homo sapiens, read-out: IC50 (half inhibitory concentration by cell viability assay)
# Protocol: Human adenocarcinomic alveolar epithelial (A549) cells were obtained from the Korea Cell Line Bank (Seoul, Korea). Cells were grown in RPMI 1640 medium (Thermo Fisher Scientific, Waltham, MA, USA), containing 10% heat-inactivated fetal bovine serum (Thermo Fisher Scientific, Waltham, MA, USA) and 1% penicillin-streptomycin (Thermo Fisher Scientific, Waltham, MA, USA) under standard cell culture conditions (37 °C, 5% CO2, and 90% humidity).
# A549 cells (1 × 10^4 cells) were incubated in 96-well plates overnight, and various concentrations (1, 10, 100, 1000, and 5000 μg/mL) of the eight selected chemicals were added to the cell culture medium. After 24 h of incubation, cell morphology was observed by optical microscopy, and cell viability was evaluated using EZ-Cytox kit (DoGenBio, Seoul, Korea) by quantifying purple formazan crystals. The membrane integrity was examined using an EZ-lactate dehydrogenase (LDH) kit (DoGenBio, Seoul, Korea) to measure the LDH level released from the cytosol into the culture medium. Absorbance was measured using a microplate reader (Tecan, Salzburg, Austria) at a wavelength of 450 nm.
# rabbit = system: rabbit; set-up: method as in earlier work; details: cited from earlier work
# rat [1] = system: rat; set-up: method as in earlier work; details: 1 h; cited from earlier work
# rat [2] = system: rat; set-up: method as in earlier work; details: cited from earlier work
smiles,measurement,setting,value
"N#CNC(=N)N [CG, Cyanoguanidine]",IC50,A549 cells,> 5000 mg/L
"N=C(N)N.N=C(N)N.O=C(O)O [GC, Guanidine carbonate]",IC50 (half inhibitory concentration by cell viability assay),A549 cells,1822 mg/L
"Cl.N=C(N)N [GH, Guanidine monohydrochloride]",IC50 (half inhibitory concentration by cell viability assay),A549 cells,2373 mg/L
"N=C(N)N.O=[N+]([O-])O [GN, Guanidine mononitrate]",IC50 (half inhibitory concentration by cell viability assay),A549 cells,3417 mg/L
"N=C(N)N.NS(=O)(=O)O [GS, Guanidine sulfamate]",IC50 (half inhibitory concentration by cell viability assay),A549 cells,2722 mg/L
"CN(C)C(=N)N(C)C [TMG, 1,1,3,3-Tetramethylguanidine]",IC50,A549 cells,1090 mg/L
"CCCCCCCCCCCCNC(=N)N [dodine, dodecylguanidine acetate]",Dermal toxicity LD50,rabbit,> 2000 mg/kg
same,Inhalation toxicity LC50,rat [1],1.05 mg/L
same,Acute oral toxicity LD50,rat [2],1931 mg/kg
